Reference: PubChem BioAssay (NCI)
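Dose response: 5 concentrations. Exposure: 48 h. Format: 96-well plates. Endpoint: linear interpolation; highest concentration if not reached. TGI marks complete inhibition of growth.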

How the values were obtained:
Assay in all cases: NCI tumour cell line growth inhibition, 48 h
[1] = test system: A498 renal
[2] = test system: ACHN renal
[3] = test system: CAKI-1 renal
[4] = test system: CCRF-CEM leukemia
[5] = test system: COLO 205 colon
[6] = test system: HOP-62 NSCLC
[7] = test system: IGROV1 ovarian
[8] = test system: NCI-H226 lung
[9] = test system: NCI-H23 lung
[10] = test system: OVCAR-8 ovarian
[11] = test system: RPMI-8226 leukemia
[12] = test system: SK-MEL-2 melanoma
[13] = test system: SNB-19 CNS
[14] = test system: NCI-H522 lung

| SMILES | TGI [1] | TGI [2] | TGI [3] | TGI [4] | TGI [5] | TGI [6] | TGI [7] | TGI [8] | TGI [9] | TGI [10] | TGI [11] | TGI [12] | TGI [13] | TGI [14] |
| --- | --- | --- | --- | --- | --- | --- | --- | --- | --- | --- | --- | --- | --- | --- |
| COc1ccc(/C=N/n2c(=O)[nH]c3ccccc3c2=O)cc1 | > 100 µM | > 100 µM | > 100 µM | > 100 µM | > 100 µM | > 100 µM | > 100 µM | > 100 µM | > 100 µM | > 100 µM | > 100 µM | > 100 µM | > 100 µM |  |
| N=c1oc2c(Br)cc(Br)cc2cc1C(=O)Nc1ccccn1 | > 100 µM | > 100 µM | > 100 µM | > 100 µM | > 100 µM | > 100 µM | > 100 µM | > 100 µM | > 100 µM | > 100 µM | > 100 µM | 91.8 µM | > 100 µM | > 100 µM |
| Cc1cc(N)ccc1N=Nc1ccc(S(=O)(=O)CCOS(=O)(=O)O)cc1 | 31.1 µM | 14.4 µM | 8.61 µM | > 100 µM | 6.08 µM | 22.6 µM | 13.9 µM | 15.6 µM | 24.5 µM | 5.89 µM | > 45.4 µM | 3.89 µM | 19.3 µM | 0.773 µM |
| CCOC(=O)N1CC2(C)C=CC1C(C(=O)OC)C2 (configuration not stated) | > 100 µM | > 100 µM | > 100 µM | > 100 µM | > 100 µM | > 100 µM | > 100 µM | > 100 µM | > 100 µM | > 100 µM | > 100 µM | > 100 µM | > 100 µM | > 100 µM |
| CCSC1=N/C(=C\c2ccco2)C(NN)=N1 | > 50 µM | > 50 µM | > 50 µM | > 50 µM | > 50 µM | > 50 µM | > 50 µM | > 50 µM | > 50 µM | > 50 µM | > 50 µM | > 50 µM | > 50 µM | > 50 µM |
| O=C1CCCC2=C1CC1=C(CCCC1=O)N2c1ccccc1C(=O)O | > 100 µM | > 100 µM | > 100 µM | > 100 µM |  |  | > 100 µM | > 100 µM | > 100 µM | > 100 µM | > 100 µM |  | > 100 µM |  |
| CC1(C)Oc2ccc3c(=O)c(-c4ccccc4)c(-c4ccccc4)oc3c2C1C(=O)O (configuration not stated) | > 100 µM |  | > 100 µM | > 100 µM | > 100 µM | > 100 µM | > 100 µM | > 100 µM | > 100 µM | > 100 µM |  | > 100 µM |  | > 100 µM |
| CC(C)N(C(=O)C1(C)CC1)C(C)C | > 100 µM | > 100 µM | > 100 µM | > 100 µM | > 100 µM | > 100 µM | > 100 µM | > 100 µM | > 100 µM | > 100 µM | > 100 µM | > 100 µM | > 100 µM | > 100 µM |
| CC1=C(C)CC(C#N)(C#N)C(C#N)(C#N)C1 | > 10 µM | > 10 µM | > 10 µM | > 10 µM | > 6.8 µM | > 10 µM | > 5.87 µM | > 10 µM | > 6.63 µM | > 9.66 µM | > 6.71 µM | > 10 µM | > 10 µM | > 2.72 µM |
| O=C1C=CC(=O)c2c1cc([N+](=O)[O-])c1ccoc21 | 30 µM | 3.4 µM | 3.54 µM | > 19.7 µM | 8.63 µM | 31.8 µM | 51.9 µM | > 62.7 µM | 46.2 µM | > 72.3 µM | > 100 µM | 35.9 µM | 39.6 µM | 4.4 µM |
| O=c1[nH]c(=O)n(C2OC(CO)C(O)C2O)c2ncc(-c3ccc(-c4ccccc4)cc3)nc12 (configuration not stated) | > 20 µM | > 20 µM | > 20 µM | > 20 µM | > 20 µM | > 20 µM | > 20 µM | > 20 µM | > 20 µM | > 20 µM | > 20 µM | > 20 µM | > 20 µM | > 20 µM |
| Cn1c2c(c3ccccc31)CCN1OCC=C[C@@H](C(=O)O)[C@@H]21 | > 100 µM | > 100 µM | > 100 µM |  | > 100 µM | > 100 µM | > 100 µM | > 100 µM |  | > 100 µM |  | > 100 µM | > 100 µM | > 100 µM |
| COc1ccc(/C=C/C(=O)C(C)(C)CN2CCCCC2)cc1 | 38.5 µM | 60.1 µM |  | 60.6 µM | 30.6 µM | > 100 µM | 65.8 µM | 45.9 µM | 54.7 µM | 37.7 µM | 40.3 µM | 32.7 µM | > 100 µM | 30 µM |
| O=C1OC2C(O)COC2(O)C1(O)C(C[N+](=O)[O-])c1ccc(Cl)cc1 (configuration not stated) | 12.3 µM | 26.7 µM | 30.1 µM | 24.1 µM | 12.8 µM | 40 µM | 21.9 µM | 26.6 µM | 18.6 µM | 51.1 µM | 4.67 µM | 35.8 µM | 28.9 µM | 23.7 µM |
| CCN(CC)C(=S)SNc1ccc(S(N)(=O)=O)cc1 | > 100 µM | > 100 µM | > 90.6 µM |  | > 100 µM | > 100 µM | > 100 µM | > 100 µM | > 100 µM | 66 µM | > 78.9 µM | > 100 µM | > 100 µM | 29.5 µM |
| C=C[C@]1(O)CCC[C@]2(C)C(=O)CCC12C (some centres not stated) | > 100 µM | > 100 µM |  |  | > 100 µM | > 100 µM | > 100 µM | > 100 µM | > 100 µM | > 100 µM | > 100 µM | > 100 µM | > 100 µM | > 100 µM |
| CC1(C)O[C@H]([C@H](O)c2nnc3ccc(Cl)nn23)[C@@H]([C@H]2COC(C)(C)O2)O1 | > 100 µM | > 100 µM | > 100 µM | > 100 µM | > 100 µM | > 100 µM | > 100 µM |  | > 100 µM | > 100 µM | > 100 µM | > 100 µM | > 100 µM | > 100 µM |
